Laboratory results published in ChEMBL document CHEMBL1201862, “PubChem BioAssay data set” (2004).
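Grown in 96-well plates, cells were treated for 48 hours with each compound at five concentrations. Insufficient inhibition: endpoint recorded as highest concentration tested. GI50 marks 50% less growth.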 Activity calls are given as the source filed them. No stated cut-off is given here; in the data, active = GI50 up to about 1.1 µM and inactive = higher.

Assays:
Test in all cases: DTP human tumour cell line panel, 48 h
[1] = tested on: M19-MEL
[2] = tested on: SNB-78
[3] = tested on: UO-31
[4] = tested on: M14
[5] = tested on: U-251
[6] = tested on: K562
[7] = tested on: HOP-62
[8] = tested on: COLO 205
[9] = tested on: EKVX
[10] = tested on: SK-MEL-28
[11] = tested on: UACC-62
[12] = tested on: NCI-H522
[13] = tested on: SNB-19
[14] = tested on: HCC 2998
[15] = tested on: A549
[16] = tested on: SNB-75
[17] = tested on: NCI-H226
[18] = tested on: NCI-H23
[19] = tested on: SN12C
[20] = tested on: CCRF-CEM
[21] = tested on: LXFL 529
[22] = tested on: TK-10
[23] = tested on: KM12
[24] = tested on: DLD-1
[25] = tested on: MOLT-4
[26] = tested on: HL-60
[27] = tested on: OVCAR-4
[28] = tested on: RPMI-8226
[29] = tested on: SF-295
[30] = tested on: SF-268
[31] = tested on: Malme-3M
[32] = tested on: HT-29
[33] = tested on: ACHN
[34] = tested on: HOP-92
[35] = tested on: OVCAR-5
[36] = tested on: UACC-257
[37] = tested on: XF498
[38] = tested on: SK-MEL-2
[39] = tested on: CAKI-1
[40] = tested on: SR
[41] = tested on: NCI-H460
[42] = tested on: SW-620
[43] = tested on: KM-20L2
[44] = tested on: OVCAR-8
[45] = tested on: SK-OV-3
[46] = tested on: A498
[47] = tested on: 786-0
[48] = tested on: OVCAR-3
[49] = tested on: SF-539
[50] = tested on: DMS-273
[51] = tested on: RXF 393
[52] = tested on: IGROV-1
[53] = tested on: DMS-114
[54] = tested on: LOX IMVI
[55] = tested on: HCT-116

Measured: GI50

N#CC(c1ccc(Cl)cc1)c1cccc(Cl)n1 (centres undefined)
inactive: [1] 60.1 µM | [2] 67.3 µM | [3] 28.1 µM | [4] 79.8 µM | [5] 97.9 µM | [6] 58.9 µM | [7] 91 µM | [8] 67.1 µM | [9] 39 µM | [10] 86.9 µM | [11] 42.6 µM | [12] 22.4 µM | [13] > 100 µM | [14] 61 µM | [15] 31 µM | [16] 21.5 µM | [17] 43.6 µM | [18] 43.3 µM | [19] 54.3 µM | [20] > 100 µM | [21] 30.3 µM | [22] 33.2 µM | [23] 78.3 µM | [24] 83 µM | [25] 55.8 µM | [26] 47.1 µM | [27] 40 µM | [28] 51.1 µM | [29] 61.9 µM | [30] 38.4 µM | [31] 74.5 µM | [32] 83.6 µM | [33] 32.7 µM | [34] 30.2 µM | [35] > 100 µM | [36] 60.7 µM | [37] 24.8 µM | [38] 54.8 µM | [39] 25.3 µM | [40] 45.1 µM | [41] > 100 µM | [42] > 100 µM | [43] 80.4 µM | [44] > 100 µM | [45] 42.1 µM | [46] 74.8 µM | [47] 82.2 µM | [48] 34 µM

O=C1C2=C(CCCCC2)C2CCCCC12O (centres undefined)
inactive: [1] > 100 µM | [2] > 100 µM | [3] > 100 µM | [49] > 100 µM | [4] > 100 µM | [50] > 100 µM | [5] > 100 µM | [6] > 100 µM | [51] > 100 µM | [7] > 100 µM | [8] > 100 µM | [52] > 100 µM | [9] > 100 µM | [10] > 100 µM | [11] > 100 µM | [12] > 100 µM | [13] > 100 µM | [14] > 100 µM | [15] > 100 µM | [16] > 100 µM | [17] > 100 µM | [18] > 100 µM | [53] > 100 µM | [19] > 100 µM | [20] > 100 µM | [21] > 100 µM | [22] > 100 µM | [23] > 100 µM | [24] > 100 µM | [25] > 100 µM | [26] > 100 µM | [28] > 100 µM | [29] > 100 µM | [30] > 100 µM | [54] > 100 µM | [31] > 100 µM | [32] > 100 µM | [33] > 100 µM | [34] > 100 µM | [36] > 100 µM | [37] > 100 µM | [38] > 100 µM | [40] > 100 µM | [55] > 100 µM | [41] > 100 µM | [42] > 100 µM | [43] > 100 µM | [44] > 100 µM | [45] > 100 µM | [47] > 100 µM | [48] > 100 µM
